# According to paper PMC9851200, “Multiparameter phenotypic screening for endogenous TFEB and TFE3 translocation identifies novel chemical series modulating lysosome function” (Autophagy, 2022):
# Experiments:
# Format in all cases: binding
# [1] = target: kinases (KINOMEscan panel) (Homo sapiens, UniProt O43293); conditions: DAPK3; NEW KINOMEscan
# [2] = target: T1, kinases (KINOMEscan panel) (Homo sapiens, UniProt O75385); conditions: NEW KINOMEscan
# T1 sequence (O75385 1-1050): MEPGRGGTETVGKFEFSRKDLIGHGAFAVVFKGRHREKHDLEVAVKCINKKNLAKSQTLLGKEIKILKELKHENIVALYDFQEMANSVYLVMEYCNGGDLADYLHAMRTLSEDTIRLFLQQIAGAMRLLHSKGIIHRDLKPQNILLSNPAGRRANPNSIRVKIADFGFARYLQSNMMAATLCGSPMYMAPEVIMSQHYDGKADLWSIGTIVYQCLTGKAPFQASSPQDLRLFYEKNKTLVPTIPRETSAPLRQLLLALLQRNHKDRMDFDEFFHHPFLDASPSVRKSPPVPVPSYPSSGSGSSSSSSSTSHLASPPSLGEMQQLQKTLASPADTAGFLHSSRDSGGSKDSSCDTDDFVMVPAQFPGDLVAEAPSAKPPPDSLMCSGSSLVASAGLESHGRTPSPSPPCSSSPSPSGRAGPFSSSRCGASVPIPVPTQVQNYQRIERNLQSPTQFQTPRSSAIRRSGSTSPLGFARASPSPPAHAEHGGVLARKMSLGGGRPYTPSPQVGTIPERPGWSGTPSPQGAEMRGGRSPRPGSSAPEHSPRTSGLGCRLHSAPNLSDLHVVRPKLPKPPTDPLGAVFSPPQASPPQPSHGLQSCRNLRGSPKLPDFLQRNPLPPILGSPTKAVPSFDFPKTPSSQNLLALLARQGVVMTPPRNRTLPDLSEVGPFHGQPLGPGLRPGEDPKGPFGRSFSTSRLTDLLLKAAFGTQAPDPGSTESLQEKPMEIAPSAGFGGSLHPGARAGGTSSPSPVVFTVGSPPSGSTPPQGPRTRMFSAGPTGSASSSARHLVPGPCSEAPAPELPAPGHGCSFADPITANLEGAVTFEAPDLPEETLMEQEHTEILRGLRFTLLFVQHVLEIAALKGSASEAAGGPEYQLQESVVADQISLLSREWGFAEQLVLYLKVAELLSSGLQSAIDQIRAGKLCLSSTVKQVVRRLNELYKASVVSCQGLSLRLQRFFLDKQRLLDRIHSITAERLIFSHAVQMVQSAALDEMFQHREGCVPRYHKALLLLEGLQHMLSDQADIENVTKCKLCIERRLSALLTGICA
# [3] = target: kinases (KINOMEscan panel) (Homo sapiens, UniProt P06241); conditions: kinase FYN; NEW KINOMEscan
# kinases (KINOMEscan panel) (Homo sapiens, UniProt P06241), sequence (P06241 whole entry): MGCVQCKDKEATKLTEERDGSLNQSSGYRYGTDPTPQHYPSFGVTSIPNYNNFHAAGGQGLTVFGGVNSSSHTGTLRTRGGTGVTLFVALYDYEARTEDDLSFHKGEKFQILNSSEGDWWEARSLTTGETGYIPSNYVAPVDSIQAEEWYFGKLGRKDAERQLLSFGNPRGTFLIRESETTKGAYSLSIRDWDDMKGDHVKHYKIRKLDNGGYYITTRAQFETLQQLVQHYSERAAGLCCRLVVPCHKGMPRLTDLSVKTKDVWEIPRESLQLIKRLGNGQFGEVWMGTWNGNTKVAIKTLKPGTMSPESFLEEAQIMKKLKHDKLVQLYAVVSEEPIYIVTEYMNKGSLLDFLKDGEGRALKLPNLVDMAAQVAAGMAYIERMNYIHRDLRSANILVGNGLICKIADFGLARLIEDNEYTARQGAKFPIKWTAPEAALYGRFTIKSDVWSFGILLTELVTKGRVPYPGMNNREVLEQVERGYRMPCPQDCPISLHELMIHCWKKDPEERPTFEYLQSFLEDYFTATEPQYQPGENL
# [4] = target: kinases (KINOMEscan panel) (Homo sapiens, UniProt P08069); conditions: kinase IGF1R; NEW KINOMEscan
# kinases (KINOMEscan panel) (Homo sapiens, UniProt P08069), sequence (P08069 31-1367): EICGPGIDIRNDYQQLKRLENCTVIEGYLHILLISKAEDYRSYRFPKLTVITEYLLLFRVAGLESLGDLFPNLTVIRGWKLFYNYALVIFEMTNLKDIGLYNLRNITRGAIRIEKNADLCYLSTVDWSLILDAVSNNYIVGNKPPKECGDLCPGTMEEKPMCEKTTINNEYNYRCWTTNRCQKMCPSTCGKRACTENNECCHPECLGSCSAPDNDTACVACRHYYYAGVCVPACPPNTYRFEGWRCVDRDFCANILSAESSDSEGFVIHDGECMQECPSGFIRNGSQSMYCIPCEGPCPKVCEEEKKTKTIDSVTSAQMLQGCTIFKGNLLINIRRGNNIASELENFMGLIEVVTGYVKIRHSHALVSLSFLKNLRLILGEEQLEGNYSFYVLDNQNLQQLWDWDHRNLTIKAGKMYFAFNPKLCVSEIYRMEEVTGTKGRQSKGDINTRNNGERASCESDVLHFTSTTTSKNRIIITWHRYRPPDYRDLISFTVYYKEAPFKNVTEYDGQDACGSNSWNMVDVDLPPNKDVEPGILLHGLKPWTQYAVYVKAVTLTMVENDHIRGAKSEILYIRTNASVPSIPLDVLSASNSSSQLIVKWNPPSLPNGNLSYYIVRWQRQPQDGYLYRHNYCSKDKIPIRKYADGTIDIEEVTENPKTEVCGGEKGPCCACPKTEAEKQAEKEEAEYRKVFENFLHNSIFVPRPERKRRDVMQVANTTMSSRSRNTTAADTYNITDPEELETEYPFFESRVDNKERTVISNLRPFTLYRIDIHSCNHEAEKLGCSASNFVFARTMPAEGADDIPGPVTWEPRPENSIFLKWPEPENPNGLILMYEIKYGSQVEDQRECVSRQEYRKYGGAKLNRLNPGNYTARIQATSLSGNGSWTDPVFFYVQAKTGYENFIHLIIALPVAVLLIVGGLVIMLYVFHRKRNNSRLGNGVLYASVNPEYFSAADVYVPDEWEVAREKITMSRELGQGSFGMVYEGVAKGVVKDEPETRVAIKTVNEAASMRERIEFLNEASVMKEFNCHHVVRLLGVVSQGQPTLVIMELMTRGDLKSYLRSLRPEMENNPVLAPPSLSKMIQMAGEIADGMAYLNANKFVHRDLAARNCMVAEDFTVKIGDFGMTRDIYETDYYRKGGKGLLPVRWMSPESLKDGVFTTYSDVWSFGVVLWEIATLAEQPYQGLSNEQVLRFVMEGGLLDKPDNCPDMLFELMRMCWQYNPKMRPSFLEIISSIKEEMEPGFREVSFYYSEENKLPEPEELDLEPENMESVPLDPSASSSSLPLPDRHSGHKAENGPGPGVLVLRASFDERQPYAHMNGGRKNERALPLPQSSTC
# [5] = target: kinases (KINOMEscan panel) (Homo sapiens, UniProt P16591); conditions: FER; NEW KINOMEscan
# [6] = target: T2, kinases (KINOMEscan panel) (Homo sapiens, UniProt P25098); conditions: NEW KINOMEscan
# T2 sequence (P25098 1-689): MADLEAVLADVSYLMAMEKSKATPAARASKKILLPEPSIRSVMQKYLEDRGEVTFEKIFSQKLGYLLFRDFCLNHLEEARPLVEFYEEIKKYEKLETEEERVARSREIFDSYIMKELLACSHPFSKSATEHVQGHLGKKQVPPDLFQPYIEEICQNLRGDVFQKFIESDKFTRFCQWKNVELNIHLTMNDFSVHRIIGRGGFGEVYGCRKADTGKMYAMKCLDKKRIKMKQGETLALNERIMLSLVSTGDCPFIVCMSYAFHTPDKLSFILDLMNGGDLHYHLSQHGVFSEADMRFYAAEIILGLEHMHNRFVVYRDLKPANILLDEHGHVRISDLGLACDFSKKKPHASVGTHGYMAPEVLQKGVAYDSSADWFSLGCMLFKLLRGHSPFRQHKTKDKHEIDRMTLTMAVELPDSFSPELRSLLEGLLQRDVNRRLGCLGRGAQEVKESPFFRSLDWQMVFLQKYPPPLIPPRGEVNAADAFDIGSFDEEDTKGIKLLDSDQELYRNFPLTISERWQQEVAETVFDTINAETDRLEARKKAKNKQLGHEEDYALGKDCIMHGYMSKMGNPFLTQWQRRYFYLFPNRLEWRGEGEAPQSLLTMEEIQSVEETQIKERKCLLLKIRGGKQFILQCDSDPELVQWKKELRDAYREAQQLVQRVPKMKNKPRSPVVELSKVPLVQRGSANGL
# [7] = target: kinases (KINOMEscan panel) (Homo sapiens, UniProt P48729); conditions: CSNK1A1; NEW KINOMEscan
# kinases (KINOMEscan panel) (Homo sapiens, UniProt P48729), sequence (P48729 whole entry): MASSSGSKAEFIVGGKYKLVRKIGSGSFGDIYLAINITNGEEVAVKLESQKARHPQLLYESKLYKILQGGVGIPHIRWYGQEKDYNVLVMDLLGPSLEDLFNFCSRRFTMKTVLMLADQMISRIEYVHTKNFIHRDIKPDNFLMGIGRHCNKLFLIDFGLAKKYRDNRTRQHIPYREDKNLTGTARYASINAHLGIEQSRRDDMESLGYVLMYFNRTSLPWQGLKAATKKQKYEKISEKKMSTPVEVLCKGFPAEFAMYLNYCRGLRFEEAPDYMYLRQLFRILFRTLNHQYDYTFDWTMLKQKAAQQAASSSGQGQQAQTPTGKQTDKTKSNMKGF
# [8] = target: kinases (KINOMEscan panel) (Homo sapiens, UniProt P51451); conditions: kinase BLK; NEW KINOMEscan
# kinases (KINOMEscan panel) (Homo sapiens, UniProt P51451), sequence (P51451 whole entry): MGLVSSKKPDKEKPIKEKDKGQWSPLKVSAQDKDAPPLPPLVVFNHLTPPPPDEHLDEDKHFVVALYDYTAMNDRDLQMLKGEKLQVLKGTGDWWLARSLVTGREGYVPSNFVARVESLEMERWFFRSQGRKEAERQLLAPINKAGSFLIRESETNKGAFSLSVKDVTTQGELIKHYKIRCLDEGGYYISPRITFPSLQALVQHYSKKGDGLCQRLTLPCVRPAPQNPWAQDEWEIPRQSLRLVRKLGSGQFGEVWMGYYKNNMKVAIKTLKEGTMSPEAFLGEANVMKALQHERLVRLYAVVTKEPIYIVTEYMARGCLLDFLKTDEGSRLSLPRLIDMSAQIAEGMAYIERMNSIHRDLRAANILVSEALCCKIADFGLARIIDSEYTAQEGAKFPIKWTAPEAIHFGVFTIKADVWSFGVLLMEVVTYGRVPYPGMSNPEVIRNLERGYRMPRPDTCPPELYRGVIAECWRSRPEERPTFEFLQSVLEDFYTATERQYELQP
# [9] = target: kinases (KINOMEscan panel) (Homo sapiens, UniProt P54756); conditions: kinase EPHA5; NEW KINOMEscan
# [10] = target: kinases (KINOMEscan panel) (Homo sapiens, UniProt Q13557); conditions: kinase CAMK2D; NEW KINOMEscan
# kinases (KINOMEscan panel) (Homo sapiens, UniProt Q13557), sequence (Q13557 whole entry): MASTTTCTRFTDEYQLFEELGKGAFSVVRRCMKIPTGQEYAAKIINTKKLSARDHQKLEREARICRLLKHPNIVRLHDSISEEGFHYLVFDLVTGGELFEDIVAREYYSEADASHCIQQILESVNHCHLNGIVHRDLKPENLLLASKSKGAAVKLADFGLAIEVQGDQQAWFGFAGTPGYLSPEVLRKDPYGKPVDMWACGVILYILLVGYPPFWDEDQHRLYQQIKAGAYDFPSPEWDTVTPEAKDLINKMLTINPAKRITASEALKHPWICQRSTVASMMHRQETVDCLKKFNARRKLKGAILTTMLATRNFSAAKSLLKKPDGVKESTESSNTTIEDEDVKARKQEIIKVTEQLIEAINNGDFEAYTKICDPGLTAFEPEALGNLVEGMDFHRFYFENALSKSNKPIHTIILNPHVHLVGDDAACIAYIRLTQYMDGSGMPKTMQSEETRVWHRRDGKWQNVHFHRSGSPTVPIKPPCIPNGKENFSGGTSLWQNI
# [11] = target: kinases (KINOMEscan panel) (Homo sapiens, UniProt Q16513); conditions: kinase PKN2; NEW KINOMEscan
# kinases (KINOMEscan panel) (Homo sapiens, UniProt Q16513), sequence (Q16513 whole entry): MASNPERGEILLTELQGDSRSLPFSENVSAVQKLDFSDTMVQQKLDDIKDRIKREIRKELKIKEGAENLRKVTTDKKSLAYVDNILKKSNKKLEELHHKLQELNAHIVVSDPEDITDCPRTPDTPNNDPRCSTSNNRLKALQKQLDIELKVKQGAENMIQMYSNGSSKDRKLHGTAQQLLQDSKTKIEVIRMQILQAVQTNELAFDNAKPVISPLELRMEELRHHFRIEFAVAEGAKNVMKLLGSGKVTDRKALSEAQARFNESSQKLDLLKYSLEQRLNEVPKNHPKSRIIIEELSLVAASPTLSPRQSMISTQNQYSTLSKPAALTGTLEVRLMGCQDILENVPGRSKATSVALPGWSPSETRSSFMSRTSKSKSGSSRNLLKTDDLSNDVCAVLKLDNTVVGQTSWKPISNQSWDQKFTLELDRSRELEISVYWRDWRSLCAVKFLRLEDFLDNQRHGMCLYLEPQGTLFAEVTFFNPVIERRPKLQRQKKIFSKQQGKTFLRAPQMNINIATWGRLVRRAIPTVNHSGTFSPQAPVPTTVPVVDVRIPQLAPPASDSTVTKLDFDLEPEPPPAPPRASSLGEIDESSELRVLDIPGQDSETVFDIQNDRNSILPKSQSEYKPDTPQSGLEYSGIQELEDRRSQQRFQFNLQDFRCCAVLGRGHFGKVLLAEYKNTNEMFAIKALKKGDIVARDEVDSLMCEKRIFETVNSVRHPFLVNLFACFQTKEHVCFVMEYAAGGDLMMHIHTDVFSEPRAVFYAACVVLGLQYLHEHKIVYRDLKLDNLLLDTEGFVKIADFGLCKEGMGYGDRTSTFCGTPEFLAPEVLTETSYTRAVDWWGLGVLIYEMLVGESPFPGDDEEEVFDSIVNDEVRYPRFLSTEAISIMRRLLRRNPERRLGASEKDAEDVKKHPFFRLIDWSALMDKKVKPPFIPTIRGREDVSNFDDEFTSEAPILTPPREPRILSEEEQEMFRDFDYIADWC
# [12] = target: kinases (KINOMEscan panel) (Homo sapiens, UniProt Q96NX5); conditions: CAMK1G; NEW KINOMEscan
# [13] = target: kinases (KINOMEscan panel) (Homo sapiens, UniProt Q9BUB5); conditions: NEW KINOMEscan
# kinases (KINOMEscan panel) (Homo sapiens, UniProt Q9BUB5), sequence (Q9BUB5 whole entry): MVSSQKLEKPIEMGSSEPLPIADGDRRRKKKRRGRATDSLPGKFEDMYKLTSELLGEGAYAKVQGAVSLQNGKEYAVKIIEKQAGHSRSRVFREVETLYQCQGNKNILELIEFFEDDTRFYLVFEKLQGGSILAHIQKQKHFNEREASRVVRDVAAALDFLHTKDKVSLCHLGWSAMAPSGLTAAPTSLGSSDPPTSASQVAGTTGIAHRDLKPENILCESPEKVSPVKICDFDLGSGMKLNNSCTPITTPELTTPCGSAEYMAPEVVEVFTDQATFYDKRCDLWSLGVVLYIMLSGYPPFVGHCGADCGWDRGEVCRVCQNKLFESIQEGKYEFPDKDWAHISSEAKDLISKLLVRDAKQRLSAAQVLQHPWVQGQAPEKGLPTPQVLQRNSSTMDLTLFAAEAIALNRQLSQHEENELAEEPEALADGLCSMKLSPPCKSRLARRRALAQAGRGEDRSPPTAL
# [14] = target: kinases (KINOMEscan panel) (Homo sapiens, UniProt Q9BYT3); conditions: kinase STK33; NEW KINOMEscan
SMILES,KINOMEscan DAPK3 [1],KINOMEscan ULK1 [2],KINOMEscan FYN [3],KINOMEscan IGF1R [4],KINOMEscan FER [5],KINOMEscan GRK2 [6],KINOMEscan CSNK1A1 [7],KINOMEscan BLK [8],KINOMEscan EPHA5 [9],KINOMEscan CAMK2D [10],KINOMEscan PKN2 [11],KINOMEscan CAMK1G [12],KINOMEscan MKNK1 [13],KINOMEscan STK33 [14]
Cc1cccc(-c2nc(Nc3ccc4nn(C)cc4c3)c3ccccc3n2)n1 [NK167],0,8,0,0,0,0,7,0,0,0,0,0,0,0
Cc1cccc(-c2nc(N(C)c3ccc4ncsc4c3)c3ccccc3n2)n1 [NK-161],0,18,0,14,0,9,10,0,9,0,0,0,7,0
